Patent US12453731B2, “Aniline-based WDR5 protein-protein interaction inhibitor, and preparation method and use thereof” (CHINA PHARMACEUTICAL UNIVERSITY, priority 2019, dated 2025)

Experiments:
MLL1-WDR5 PPI = MLL1-WDR5 PPI (Homo sapiens (Human), UniProt P61964); assay: fluorescent probe assay of MLL1-WDR5 protein-protein interaction inhibition; assay type: binding; conditions: fluorescent probe based on MLL1 peptide, incubation 0.5 hrs, read-out: MLL1-WDR5 PPI inhibiting activity IC50
Procedure: In the present disclosure, a fluorescent molecular probe was constructed based on a MLL1 peptide fragment binding to WDR5, for use as a method for study on an aniline compound interfering with WDR5 protein-protein interaction, to determine an inhibition rate of the aniline compound at various concentrations, and then compute the IC50 value. Specific experimental steps: 20 μL of WDR5 protein, 20 μL of a fluorescent probe, and 20 μL of a compound of different concentration gradients were added to a 384-well plate respectively. After incubation for 0.5 hrs, the fluorescence was read on a multifunctional microplate reader at an excitation wavelength of 485 nm and an emission wavelength of 535 nm, to compute the mP value. The inhibition rate was computed as per the formula below, and then the IC50 value was computed using GraphPad software.

[1] = test system: methylation level of H3K4; assay: inhibition of the methylation level of H3K4 (methyltransferase activity); assay type: biochemical
[2] = test system: MV4-11 human acute mononuclear leukemia cells; assay: anti-proliferative activity against leukemia cells MV4-11; assay type: cell-based; conditions: Homo sapiens, MV4-11, MV4-11 cells; read-out: GI50 (MV-411)
From the text: (§1) Some compounds of the present disclosure have also been tested for the antiproliferative activity against leukemia cells.

[3] = test system: Molm-13 human acute myeloid leukemia cells; assay: anti-proliferative activity against leukemia cells Molm-13; assay type: cell-based; conditions: Homo sapiens, MOLM-13, Molm-13 cells
From the text: as §1

| Structure (SMILES) | IC50 (MLL1-WDR5 PPI) [µM] | Whether the methylation level of H3K4 was inhibited [1] | GI50 [2] [µM] | GI50 [3] [µM] |
| --- | --- | --- | --- | --- |
| CN(C)CCCNC(=O)c1ccc(-c2ccc(N3CCN(C)CC3)c(Nc3ncnc(Cl)c3N)c2)cc1 [Example 28, 3″-((5-amino-6-chloropyrimidin-4-yl)amino)-N-(3-(dimethylamino)propyl)-4″-(4-methylpiperazin-1-yl)-[1,1′-biphenyl]-4-carboxamide] | 0.27 | Yes | 29.7 | 24.3 |
| CN1CCN(c2ccc(-c3ccc(C(=O)NCCN4CCCC4)cc3)cc2Nc2ncnc(Cl)c2N)CC1 [Example 29, 3″-((5-amino-6-chloropyrimidin-4-yl)amino)-4″-(4-methylpiperazin-1-yl)-N-(2-(pyrrolidin-1-yl)ethyl)-[11,1′-biphenylyl]-4-carboxamide] | 0.37 | Yes | 16.6 | 18.2 |
| CN1CCN(c2ccc(-c3ccc(C(=O)NCCCO)cc3)cc2Nc2ncnc(Cl)c2N)CC1 [Example 30, 3″-((5-amino-6-chloropyrimidin-4-yl)amino)-N-(3-hydroxylpropyl)-4″-(4-methylpiperazin-1-yl)-[1,1′-biphenyl]-zole-4-carboxamide] | 0.31 | Yes | 27.3 | 32.6 |
| CC(C)NC(=O)c1ccc(-c2ccc(N3CCN(C)CC3)c(Nc3ncnc(Cl)c3N)c2)cc1 [Example 31, 3″-((5-amino-6-chloropyrimidin-4-yl)amino)-N-isopropyl-4″-(4-methylpiperazin-1-yl)-[1,1′-biphenyl]-4-carboxamide] | 0.46 | Yes | 10.5 | 18.8 |
| CN1CCN(c2ccc(-c3ccc(N)cc3)cc2Nc2ncnc(Cl)c2N)CC1 [Example 32, N^4-(4′-amino-4-(4-methylpiperazin-1-yl)-[1,1′-biphenyl]-3-yl)-6-chloropyrimidine-e-4,5-diamine] | 0.691 | Yes | 40 | 27.2 |
| CN1CCN(c2ccc(-c3ccc(NC(=O)C4CCOCC4)cc3)cc2Nc2ncnc(Cl)c2N)CC1 [Example 33, N-(3″-((5-amino-6-chloropyrimidin-4-yl)amino)-4″-(4-methylpiperazin-1-yl)-[1,1′-biphenyl]-4-yl)tetrahydro-2H-pyran-4-carboxamide] | 0.489 | Yes | 25.9 | 22.7 |
| CN1CCC(C(=O)Nc2ccc(-c3ccc(N4CCN(C)CC4)c(Nc4ncnc(Cl)c4N)c3)cc2)CC1 [Example 34, N-(3″-((5-amino-6-chloropyrimidin-4-yl)amino)-4″-(4-methylpiperazin-1-yl)-[1,1′-biphenyl]-4-yl)-1-methylpiperidin-4-carboxamide] | 0.287 | Yes | 23.2 | 20.8 |
| CN1CCN(c2ccc(-c3ccc(NC(=O)C4CCCCC4)cc3)cc2Nc2ncnc(Cl)c2N)CC1 [Example 35, N-(3″-((5-amino-6-chloropyrimidin-4-yl)amino)-4″-(4-methylpiperazin-1-yl)-[1,1′-biphenyl]-4-yl)cyclohexanecarboxamide] | 0.372 | Yes | 2.07 | 6.16 |
| CCCC(=O)Nc1ccc(-c2ccc(N3CCN(C)CC3)c(Nc3ncnc(Cl)c3N)c2)cc1 [Example 36, N-(3″-((5-amino-6-chloropyrimidin-4-yl)amino)-4″-(4-methylpiperazin-1-yl)-[1,1′-biphenyl]-4-yl)butyramide] | 0.261 | Yes | 9.32 | 12.5 |
| CN1CCN(C(=O)c2ccc(-c3ccc(N4CCN(C)CC4)c(Nc4ncnc(Cl)c4N)c3)c(F)c2)CC1 [Example 38, (3″-((5-amino-6-chloropyrimidin-4-yl)amino)-2-fluoro-4″-(4-methylpiperazin-1-yl)-[1,1′-biphenyl]-4-yl)(4-methylpiperazin-1-yl)methanone] | 0.652 | Yes | 20.8 | 26 |
| CN1CCN(c2ccc(-c3cccc(N)c3)cc2Nc2ncnc(Cl)c2N)CC1 [Example 39, N-(3′-amino-4-(4-methylpiperazin-1-yl)-[1,1′-biphenyl]-3-yl)-6-chloropyrimidine-4,5-diamine] | 0.675 | Yes | 32.2 | 28.6 |
| CN1CCN(c2ccc(-c3cccc(NC(=O)C4CCOCC4)c3)cc2Nc2ncnc(Cl)c2N)CC1 [Example 40, N-(3″-((5-amino-6-chloropyrimidin-4-yl)amino)-4″-(4-methylpiperazin-1-yl)-[1, 1′-biphenyl]-3-yl)tetrahydro-2H-pyran-4-carboxamide] | 0.328 | Yes | 28.4 | 26.2 |
| CN1CCC(C(=O)Nc2cccc(-c3ccc(N4CCN(C)CC4)c(Nc4ncnc(Cl)c4N)c3)c2)CC1 [Example 41, N-(3″-((5-amino-6-chloropyrimidin-4-yl)amino)-4″-(4-methylpiperazin-1-yl)-[1,1′-biphenyl]-3-yl)-1-methylpiperidin-4-carboxamide] | 0.329 | Yes | 25.8 | 24.4 |
| COC(=O)c1cn(-c2ccc(N3CCN(C)CC3)c(Nc3ncnc(Cl)c3N)c2)nn1 [Example 46, Methyl 1-(3-((5-amino-6-chloropyrimidin-4-yl)amino)-4-(4-methylpiperazin-1-yl)phenyl)-1H-1,2,3-triazole-4-carboxylate] | 0.865 | Yes | 22.4 | 11.7 |
| CN1CCN(c2ccc(-c3ccc(C(=O)N(C)C)cc3)c(F)c2Nc2ncnc(Cl)c2N)CC1 [Example 54, 3″-((5-amino-6-chloropyrimidin-4-yl)amino)-2′-fluoro-N,N-dimethyl-4″-(4-methylpiperazin-1-yl)-[1,1′-biphenyl]-4-carboxamide] | 0.24 | Yes | 17.5 | 16.2 |

Continued, values first:

| IC50 (MLL1-WDR5 PPI) [µM] | Whether the methylation level of H3K4 was inhibited [1] | GI50 [2] [µM] | GI50 [3] [µM] | Structure (SMILES) |
| --- | --- | --- | --- | --- |
| 0.217 | Yes | 39.2 | 34 | CN1CCN(C(=O)c2ccc(-c3ccc(N4CCN(C)CC4)c(Nc4ncnc(Cl)c4N)c3)cc2)CC1 [Example 27, (3″-((5-amino-6-chloropyrimidin-4-yl)amino)-4″-(4-methylpiperazin-1-yl)-[1,1′-biphenyl]-4-yl)(4-methylpiperazin-1-yl) methanone] |
| 0.24 | Yes | 10.6 | 14.7 | CN1CCN(c2ccc(-n3cc(C(=O)N4CCOCC4)nn3)cc2Nc2ncnc(Cl)c2N)CC1 [Example 47, (1-(3-((5-amino-6-chloropyrimidin-4-yl)amino)-4-(4-methylpiperazin-1-yl)phenyl)-1H-1,2,3-triazole-4-yl)(morpholino)methanone] |
| 0.117 | Yes | 22.5 | 28.9 | CN1CCN(c2ccc(-c3ccc(C(=O)N4CCOCC4)cc3)c(F)c2Nc2ncnc(Cl)c2N)CC1 [Example 55, (3″-((5-amino-6-chloropyrimidin-4-yl)amino)-2′-fluoro-4″-(4-methylpiperazin-1-yl)-[1,1′-biphenyl]-4-yl)(morpholino)methanone] |
| 0.102 | Yes | 9.04 | 8.43 | CN1CCN(c2ccc(-c3ccc(C(=O)NCCN4CCOCC4)cc3)c(F)c2Nc2ncnc(Cl)c2N)CC1 [Example 56] |
| 0.069 | Yes | 22.3 | 17.6 | CN1CCN(c2ccc(-c3ccc(C(=O)NCCCN4CCOCC4)cc3)c(F)c2Nc2ncnc(Cl)c2N)CC1 [Example 57] |
| 0.112 | Yes | 19.5 | 20.3 | CCN1CCN(C(=O)c2ccc(-c3ccc(N4CCN(C)CC4)c(Nc4ncnc(Cl)c4N)c3F)cc2)CC1 [Example 58, (3″-((5-amino-6-chloropyrimidin-4-yl)amino)-2′-fluoro-4″-(4-methylpiperazin-1-yl)-[1,1′-biphenyl]-4-yl)(4-ethylpiperazin-1-yl)methanone] |
| 0.176 | Yes | 26.4 | 31.2 | CN1CCN(c2ccc(-c3ccc(NC(=O)C4CCOCC4)cc3)c(F)c2Nc2ncnc(Cl)c2N)CC1 [Example 59, N-(3″-((5-amino-6-chloropyrimidin-4-yl)amino)-2′-fluoro-4″-(4-methylpiperazin-1-yl)-[1,1′-biphenyl]-4-yl)tetrahydro-2H-pyran-4-carboxamide] |
| 0.105 | Yes | 22.7 | 22.6 | CN1CCC(C(=O)Nc2ccc(-c3ccc(N4CCN(C)CC4)c(Nc4ncnc(Cl)c4N)c3F)cc2)CC1 [Example 60, N-(3″-((5-amino-6-chloropyrimidin-4-yl)amino)-2′-fluoro-4″-(4-methylpiperazin-1-yl)-[1,1′-biphenyl]-pyridin-4-yl)-1-methylpiperidin-4-carboxamide] |
